Experimental data: US9212164B2, “Pesticidal compositions and processes related thereto” (Dow AgroSciences LLC, priority 2012, dated 2015)

Columns and labels:
[1] = system: Cabbage Looper (CL) (Trichoplusia ni); assay: Bioassays on CL, 128-well diet tray assay; type: in vivo; details: 168 h, 50 μg/cm^2 on artificial diet, second instar larvae, five to seven days, 25° C., read-out: CL Rating (percent mortality)
Method: (§1) Certain molecules disclosed in this document were tested against BAW, CEW and CL using procedures described in the following examples. In the reporting of the results, the “BAW & CEW & CL Rating Table” was used (See Table Section).
Bioassays on CL (Trichoplusia ni)
Bioassays on CL were conducted using a 128-well diet tray assay. One to five second instar CL larvae were placed in each well (3 mL) of the diet tray that had been previously filled with 1 mL of artificial diet to which 50 μg/cm^2 of the test compound (dissolved in 50 μL of 90:10 acetone-water mixture) had been applied (to each of eight wells) and then allowed to dry. Trays were covered with a clear self-adhesive cover, and held at 25° C., 14:10 light-dark for five to seven days. Percent mortality was recorded for the larvae in each well; activity in the eight wells was then averaged. The results are indicated in the table entitled “Table 4: Assay Results Part 2” (See Table Section).

[2] = system: Beet Armyworm (BAW) (Spodoptera exigua); assay: Bioassays on BAW, 128-well diet tray assay; type: in vivo; details: for mortality at 50 µg/cm2: Spodoptera exigua, 168 h, 50 μg/cm^2 on artificial diet, second instar larvae, five to seven days, 25° C., read-out: BAW Rating (percent mortality); for BAW Rating: Beet Armyworm, 128-well diet tray assay, rating C = Not Tested (omitted), D = no activity noticed
Method: as §1
Bioassays on BAW (Spodoptera exigua)
Bioassays on BAW were conducted using a 128-well diet tray assay. One to five second instar BAW larvae were placed in each well (3 mL) of the diet tray that had been previously filled with 1 mL of artificial diet to which 50 μg/cm^2 of the test compound (dissolved in 50 μL of 90:10 acetone-water mixture) had been applied (to each of eight wells) and then allowed to dry. Trays were covered with a clear self-adhesive cover, and held at 25° C., 14:10 light-dark for five to seven days. Percent mortality was recorded for the larvae in each well; activity in the eight wells was then averaged. The results are indicated in the tables entitled “Table 3: Assay Results Part 1” and “Table 4: Assay Results Part 2” (See Table Section).

Compound	mortality at 50 µg/cm2 [1] [%]	mortality at 50 µg/cm2 [2] [%]	BAW Rating [2]
O=C(NC1(C(=O)NCC(F)(F)F)CC1)c1ccc(/C=C/[C@@H](c2cc(Cl)c(Cl)c(Cl)c2)C(F)(F)F)cc1C(F)(F)F (single isomer, unassigned) [Compound F8B]	50 to 100	50 to 100	
O=C(NC1(C(=O)NC2CCSC2)CC1)c1ccc(/C=C/C(c2cc(Cl)c(Cl)c(Cl)c2)C(F)(F)F)cc1Br (stereo not shown) [FA19]	50 to 100	50 to 100	
COc1ccc(NC(=O)C2(NC(=O)c3ccc(/C=C/C(c4cc(Cl)c(Cl)c(Cl)c4)C(F)(F)F)cc3Br)CC2)cc1 (stereo not shown) [FA40]	50 to 100	50 to 100	
O=C(NC1(C(=O)NC2CCCOC2)CC1)c1ccc(/C=C/C(c2cc(Cl)c(Cl)c(Cl)c2)C(F)(F)F)cc1Br (stereo not shown) [FA47]	50 to 100	50 to 100	
O=C(NC1(C(=O)NCC(F)(F)F)CC1)c1ccc(/C=C/C(c2cccc(OC(F)(F)F)c2)C(F)(F)F)cc1Br (stereo not shown) [Compound P153]	50 to 100	50 to 100	
O=C(NC1(C(=O)NCC(F)(F)F)CC1)c1ccc(/C=C/C(c2ccc(Cl)c([N+](=O)[O-])c2)C(F)(F)F)cc1C(F)(F)F (stereo not shown) [Compound P470]	50 to 100	50 to 100	
O=C(NC1(C(=O)NCC(F)F)CC1)c1ccc(/C=C/C(c2cc(Cl)c(Cl)c(Cl)c2)C(F)(F)F)cc1Br (stereo not shown) [FA32]	50 to 100	50 to 100	
O=C(NC1(C(=S)NCC(F)(F)F)CC1)c1ccc(/C=C/C(c2cc(Cl)c(Cl)c(Cl)c2)C(F)(F)F)cc1Cl (stereo not shown) [Compound P1010]	50 to 100	50 to 100	
CC(F)(F)C(/C=C/c1ccc(C(=O)NC2(C(=O)NCC(F)(F)F)CC2)c(Br)c1)c1ccc(Cl)c(Cl)c1 (stereo not shown) [FA12]	50 to 100	50 to 100	
N#Cc1cc(C(/C=C/c2ccc(C(=O)NC3(C(=O)NCC(F)(F)F)CC3)c(Br)c2)C(F)(F)F)ccc1F (stereo not shown) [Compound P513]	50 to 100	50 to 100	
O=C(NC1(C(=O)NCC(F)(F)F)CC1)c1ccc(/C=C/C(c2cc(Br)cc(Br)c2)C(F)(F)F)cc1Br (stereo not shown) [Compound P1183]	50 to 100	50 to 100	
O=C(NC1(C(=O)NCC(F)(F)F)CC1)c1ccc(/C=C/C(c2ccc(Br)c(Br)c2)C(F)(F)F)cc1Br (stereo not shown) [Compound P423]	50 to 100	50 to 100	
O=C(NC1(C(=O)NCCC(F)(F)F)CC1)c1ccc(/C=C/C(c2cc(Cl)c(Cl)c(Cl)c2)C(F)(F)F)cc1C(F)(F)F (stereo not shown) [Compound P1035]	50 to 100	50 to 100	
O=C(NC1(C(=O)NC2CCCCC2)CC1)c1ccc(/C=C/C(c2cc(Cl)c(Cl)c(Cl)c2)C(F)(F)F)cc1Br (stereo not shown) [FA22]	50 to 100	0	
Cc1cc(C(/C=C/c2ccc(C(=O)NC3(C(=O)NCC(F)(F)F)CC3)c(Br)c2)C(F)(F)F)ccc1F (stereo not shown) [Compound P693]	50 to 100	50 to 100	
CCNC(=O)C1(NC(=O)c2ccc(/C=C/C(c3cc(Cl)c(Cl)c(Cl)c3)C(F)(F)F)cc2C(F)(F)F)CC1 (stereo not shown) [Compound P1025]	50 to 100	50 to 100	
Cc1cc(C(/C=C/c2ccc(C(=O)NC3(C(=O)NCC(F)(F)F)CC3)c(C(F)(F)F)c2)C(F)(F)F)cc(Cl)c1Cl (stereo not shown) [FA3]	50 to 100	50 to 100	
O=C(NC1(C(=O)NCc2cccc(C(F)(F)F)c2)CC1)c1ccc(/C=C/C(c2cc(Cl)c(Cl)c(Cl)c2)C(F)(F)F)cc1Br (stereo not shown) [FA26]	50 to 100	50 to 100	

Compound	mortality at 50 µg/cm2 [1] [%]	mortality at 50 µg/cm2 [2] [%]	BAW Rating [2]
O=C(NC1(C(=O)NCCF)CC1)c1ccc(/C=C/C(c2cc(Br)cc(Br)c2)C(F)(F)F)cc1C(F)(F)F (stereo not shown) [Compound P1200]	50 to 100	50 to 100	
O=C(NC1(C(=O)NCC(F)(F)F)CC1)c1ccc(/C=C/C(c2cc(Cl)c(Cl)c(Cl)c2)C(F)(F)C(F)(F)F)cc1C(F)(F)F (stereo not shown) [Compound P1005]	50 to 100	50 to 100	
N#CCN1CCC(NC(=O)c2ccc(/C=C/C(c3cc(Cl)c(Cl)c(Cl)c3)C(F)(F)F)cc2Br)CC1 (stereo not shown) [AC107]			B (More than 0 - Less than 50)
O=C(NC1(C(=O)NCC(F)F)CC1)c1ccc(/C=C/C(c2cc(Br)cc(Br)c2)C(F)(F)F)cc1C(F)(F)F (stereo not shown) [Compound P1195]	50 to 100	50 to 100	
O=C(NC1(C(=O)NCC(F)(F)F)CC1)c1ccc(/C=C/C(c2cc(Cl)c(Cl)cc2Cl)C(F)(F)F)cc1Br (stereo not shown) [Compound P108]	50 to 100	50 to 100	
Cc1cc(C(/C=C/c2ccc(C(=O)NC3(C(=O)NCC(F)(F)F)CC3)c(C(F)(F)F)c2)C(F)(F)F)cc(C)c1F (stereo not shown) [Compound P335]	50 to 100	50 to 100	
Cc1cc(C(/C=C/c2ccc(C(=O)NC3(C(=O)NCC(F)(F)F)CC3)c(C(F)(F)F)c2)C(F)(F)F)ccc1F (stereo not shown) [Compound P336]	50 to 100	50 to 100	
O=C(NC1(C(=O)NCCC(F)(F)F)CC1)c1ccc(/C=C/C(c2cc(Br)cc(Br)c2)C(F)(F)F)cc1Br (stereo not shown) [Compound P1213]	50 to 100	50 to 100	
CCc1cc(Cl)cc(C(/C=C/c2ccc(C(=O)NC3(C(=O)NCC(F)(F)F)CC3)c(C(F)(F)F)c2)C(F)(F)F)c1 (stereo not shown) [FA10]	50 to 100	50 to 100	
Cc1cc(C(/C=C/c2ccc(C(=O)NC3(C(=O)NCC(F)(F)F)CC3)c(C(F)(F)F)c2)C(F)(F)F)cc(C)c1Cl (stereo not shown) [FA14]	50 to 100	50 to 100	
CCNC(=O)C1(NC(=O)c2ccc(/C=C/C(c3cc(Cl)c(Cl)c(Cl)c3)C(F)(F)F)cc2C)CC1 (stereo not shown) [Compound P1026]	50 to 100	50 to 100	
Cn1nc(C(F)(F)F)cc1NC(=O)C1(NC(=O)c2ccc(/C=C/C(c3cc(Cl)c(Cl)c(Cl)c3)C(F)(F)F)cc2Br)CC1 (stereo not shown) [FA48]	50 to 100	50 to 100	
O=C(NC1CC1(F)F)c1ccc(/C=C/C(c2cc(Cl)c(Cl)c(Cl)c2)C(F)(F)F)cc1Br (stereo not shown) [Compound P31]	50 to 100	50 to 100	
COc1ccccc1NC(=O)C1(NC(=O)c2ccc(/C=C/C(c3cc(Cl)c(Cl)c(Cl)c3)C(F)(F)F)cc2Br)CC1 (stereo not shown) [FA39]	0	0	
O=C(NCCc1ccc(Cl)nc1)c1ccc(/C=C/C(c2cc(Cl)c(Cl)c(Cl)c2)C(F)(F)F)cc1Br (stereo not shown) [AC113]			B (More than 0 - Less than 50)
FC(F)(F)C(/C=C/c1ccc(-n2cncn2)cc1)c1ccccc1 (stereo not shown) [DC3]			B (More than 0 - Less than 50)
CCNC(=O)NCc1ccc(/C=C/C(c2cc(Cl)cc(Cl)c2)C(F)(F)F)cc1Cl (stereo not shown) [CC31, (E)-1-(2-Chloro-4-(3-(3,5-dichlorophenyl)-4,4,4-trifluorobut-1-en-1-yl)benzyl)-3-ethylurea]			B (More than 0 - Less than 50)
O=C(NC1CCN(C2COC2)CC1)c1ccc(/C=C/C(c2cc(Cl)c(Cl)c(Cl)c2)C(F)(F)F)cc1Br (stereo not shown) [AC108, (E)-2-Bromo-N-(1-(oxetan-3-yl)piperidin-4-yl)-4-(4,4,4-trifluoro-3-(3,4,5-trichlorophenyl)but-1-en-1-yl)benzamide]			B (More than 0 - Less than 50)
